Data published in patent US7943775B2, “Small molecules for imaging protein-protein interactions” (The United States of America as represented by the …, priority 2006, dated 2011).

Experiments:
Biotin-labeled amyloid-β [1] = target: T1, Biotin-labeled amyloid-β (Homo sapiens, UniProt P05067); assay: ELISA assay, binding of biotin-labeled amyloid-β to plate-coated test compounds; conditions: compound coated at 1 μM
Description: Step 1. Sample Solution Preparations. For each test compound, four samples and two standard solutions using Thioflavin-T as the standard were prepared in a coating buffer, each to a final concentration of 1 μM. The coating buffer was 50 mM Tris (Trizma Base from Sigma Aldrich, Inc., St. […] Step 2. Coating the Plate. The sample solutions were applied to individual wells of a 96-well polystyrene microtiter plate at 100 μL/well. The plates were sealed and allowed to incubate at 4° C. for at least 8 hours. Step 3. Washing the Plate. The sample solutions were removed and the plate was washed two times with 300 μL/well of washing solution, which consisted of a 1 to 25 dilution in water of DELFIA® Wash Concentrate (PerkinElmer Life Sciences, Inc., Boston, Mass., USA). Step 4. Blocking. Blocking was achieved by adding 150 μL/well of a blocking buffer which consisted of a 1 to 20 dilution in water of Milk Diluent/Blocking Solution Concentrate (from KPL, Inc., Gaithersburg, Md., USA). The plate was then incubated at room temperature for 2 hours. Step 5. Sampling. Biotin-labeled amyloid-β was dissolved in a binding buffer to form a 1 μM solution of the amyloid-β. The binding buffer was a mixture of a coating buffer with the blocking buffer of Step 4 in a 90:10 ratio by volume. […] The dilutions were performed in quadruplicate, thus resulting in four sets of wells for each test compound. Step 6. Mixing. The solution in each well was mixed by being drawn into and ejected from a pipette 15 times. The plate was then gently agitated for further mixing. The plate was then covered and incubated at room temperature overnight. Step 7. Washing. The solution in each well was discarded and the plate was washed three times with 170 μL/well of the washing solution described above. Step 8. Binding with avidin-HRP. NeutrAvidinHRP solution was added to each well at 0.01 μg/well. The wells were then covered and incubated at room temperature for 30 minutes. Step 9. Substrate addition. The solution in each well was discarded and the plate was washed 3 times with the above-referenced washing solution at 170 μL/well of washing solution. A chemiluminescent substrate solution which was a mixture of equal volumes of LumiGLO Substrate A and LumiGLO Substrate B from KPL, Inc., was then added at 100 μL/well. Step 10. Fluorescence measurement and calculations. Luminescence was read on a Wallac Victor 1420 Multilabel Reader (PerkinElmer Life Sciences, Inc., Boston, Mass., USA). […] Average luminescence concentrations in counts per second (CPS) for each of the four β-amyloid-binding portion candidates at each dilution of the biotin-labeled β-amyloid are shown in Table I below.

Biotin-labeled amyloid-β [2] = target: T1, Biotin-labeled amyloid-β; assay: Dose response assay, plate-coated test compounds at 6 concentrations vs biotin-labeled amyloid β; type: binding; conditions: biotin-labeled amyloid at 1 μM; compounds coated at 6 concentrations
Description: Step 1. Coating the plate. The four compounds 3a, 3b, 3c, and 3d were diluted to 6 different concentrations in the same coating buffer used in the ELISA. The resulting solutions were applied to individual wells of a 96-well polystyrene microtiter plate at 100 μL/well. The plate was then sealed and allowed to incubate at 4° C. for at least 8 hours.
Step 2. Washing the plate. The sample solutions were then removed and the plate was washed twice with 300 μL/well of the same washing solution used in the ELISA.
Step 3. Blocking. The blocking buffer used in the ELISA was added at a volume of 150 μL/well, and the plate was incubated at room temperature for 2 hours.
Step 4. Sampling. The blocking buffer was removed and biotin-labeled amyloid P was added to each well at a concentration of 1 μM in the same binding buffer used in the ELISA. The solution in each well was then mixed by being drawn into and ejected from a pipette 15 times. The plate was then gently agitated for further mixing. After mixing, the plate was covered and incubated at room temperature overnight.
Step 5. Washing. The solution in each well was discarded and the plate was washed three times with 170 μL/well of the washing solution described above.
Step 6. Binding with avidin-HRP and substrate. NeutrAvidinHRP solution was added to each well at 0.01 μg/well. The wells were then covered and incubated at room temperature for 30 minutes. The solution in each well was discarded and the plate was washed 3 times with the above-referenced washing solution at 170 μL/well of washing solution. The chemiluminescent substrate solution of the ELISA was then added at 100 μL/well, and luminescence was read using the Wallac Victor 1420 Multilabel Counter.
Step 7. Reading and calculations. Values for average luminescence vs. concentration were developed in the same manner as in the ELISA. From these values were determined EC50 values for each of the four test compounds as β-amyloid-binding portion candidates.

FKBP12 = target: T2, FKBP12 (Homo sapiens, UniProt P62942); assay: ELISA screening of candidates for the chaperone binding portion (FKBP12); conditions: for Average Luminescence Concentration (CPS): compound coated at 1 μM; for binding affinity to chaperone FKBP12, in words: comparison of the four isomers
T2 construct: His (6xHis); made in house; host or cells: E. coli BL21-AI
T2 sequence (P62942 whole entry): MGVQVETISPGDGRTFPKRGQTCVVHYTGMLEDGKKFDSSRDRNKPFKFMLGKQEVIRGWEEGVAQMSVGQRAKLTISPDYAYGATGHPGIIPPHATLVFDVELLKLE
Description: The following four compounds, synthesized as described in, or in a manner analogous to the description in, Example 3, were tested for their suitability as candidates for the chaperone binding portion of the construct of this invention. The chaperone to which binding was evaluated was FKBP12 and, screening was performed by ELISA.
Step 1. Sample Solutions. Four samples of each of the test compounds were prepared by dissolving the compounds in the coating buffer described in Example 2 to a final concentration of 1 μM.
Step 2. Coating the Plate. The wells of a 96-well microtiter plate were coated with the sample solutions at 100 μL/well. The plates were then sealed and allowed to incubate at 4° C. for at least 8 hours.
Step 3. Washing the Plate. The coating solution was removed from the wells and the plate was washed two times with the washing solution of Example 2 at 300 μL/well.
Step 4. Blocking. The blocking buffer used in Example 2 was added at a volume of 150 μL/well, and the plate was incubated at room temperature for 2 hours.
Step 5. Sampling. Biotin-labeled FKBP12 was dissolved in a binding buffer to form a 1 μM solution. The binding buffer was a mixture of a coating buffer with the blocking buffer of Step 4 in a 90:10 ratio by volume. The coating buffer consisted of 50 mM Tris (Trizma Base from Sigma-Aldrich), 150 mM NaCl, 1 mM CaCl2, 1mM MgCl2, 1 mM MnCl2, pH=7.4 in redistilled water. Once blocking had been completed in Step 4, the blocking buffer was removed from each well, and the biotin-labeled […] solution was placed in one of the wells for each of the four test compounds, together with additional blocking buffer for a total volume of 125 μL in the well. Dilutions were then prepared to achieve final concentrations per well of […]. The dilutions were performed in quadruplicate, thus resulting in four sets of wells for each test compound. The procedures used for cloning, expression, and purification of FKBP12 are provided at the end of this example.
Step 6. Mixing. The solution in each well was mixed by being drawn into and ejected from a pipette 15 times. The plate was then gently agitated to achieve thorough mixing. After mixing, the plate was covered and incubated at room temperature overnight.
Step 7. Washing. The solution in each well was discarded and the plate was washed three times with 170 μL/well of the washing solution of Example 2.
Step 8. Binding with avidin-HRP. NeutrAvidinHRP solution was added to each well at 0.01 μg (100 μL)/well. The wells were then covered and incubated at room temperature for 30 minutes.
Step 9. Substrate addition. The solution in each well was discarded and the plate was washed 3 times with the above-referenced washing solution at 170 μL/well of washing solution. A chemiluminescent substrate solution was then added at 100 μL/well.
Step 10. Fluorescence measurement and calculations.

[3] = β-Amyloid Dilution 10 (μL/well)
[4] = β-Amyloid Dilution 20 (μL/well)
[5] = β-Amyloid Dilution 30 (μL/well)
[6] = β-Amyloid Dilution 40 (μL/well)
[7] = Concentration 1 (μM/well) biotin-labeled FKBP12
[8] = Concentration 5 (μM/well) biotin-labeled FKBP12
[9] = Concentration 10 (μM/well) biotin-labeled FKBP12
[10] = Concentration 20 (μM/well) biotin-labeled FKBP12
[11] = Concentration 30 (μM/well) biotin-labeled FKBP12
[12] = Concentration 40 (μM/well) biotin-labeled FKBP12

T1 sequence (P05067 672-711 limits assumed): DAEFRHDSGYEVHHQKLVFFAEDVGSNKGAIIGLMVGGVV

| Average Luminescence Concentration (CPS) (FKBP12; [7]) | Average Luminescence Concentration (CPS) (FKBP12; [8]) | Average Luminescence Concentration (CPS) (FKBP12; [9]) | Average Luminescence Concentration (CPS) (FKBP12; [10]) | Average Luminescence Concentration (CPS) (FKBP12; [11]) | Average Luminescence Concentration (CPS) (FKBP12; [12]) | binding affinity to chaperone FKBP12, in words (FKBP12) | Structure (SMILES) | Average Luminescence Concentration (CPS) (Biotin-labeled amyloid-β [1]; β-Amyloid Dilution 1 (μL/well)) | Average Luminescence Concentration (CPS) (Biotin-labeled amyloid-β [1]; β-Amyloid Dilution 5 (μL/well)) | Average Luminescence Concentration (CPS) (Biotin-labeled amyloid-β [1]; [3]) | Average Luminescence Concentration (CPS) (Biotin-labeled amyloid-β [1]; [4]) | Average Luminescence Concentration (CPS) (Biotin-labeled amyloid-β [1]; [5]) | Average Luminescence Concentration (CPS) (Biotin-labeled amyloid-β [1]; [6]) | EC50 (Biotin-labeled amyloid-β [2]) [µM] |
| --- | --- | --- | --- | --- | --- | --- | --- | --- | --- | --- | --- | --- | --- | --- |
| 660 | 1158 | 769 | 371 | 1297 | 1138 | low or moderate binding affinity | CCC(C)(C)C(=O)C(=O)N1CCCC[C@H]1C(=O)O[C@@H](CCc1ccc(OC)c(OC)c1)c1ccc(OCC(=O)O)cc1 [9-RR] |  |  |  |  |  |  |  |
| 1399 | 1688 | 1685 | 2006 | 4244 | 5509 |  | CCC(C)(C)C(=O)C(=O)N1CCCC[C@H]1C(=O)O[C@H](CCc1ccc(OC)c(OC)c1)c1ccc(OCC(=O)O)cc1 [9-RS, (1R)-1-[4-(carboxymethoxy)phenyl]-3-(3,4-dimethoxy-phenyl)-1-propanyl (2S)-1-(3,3-dimethyl-1,2-dioxopentyl)-2-piperidinecarboxylate] |  |  |  |  |  |  |  |
| 762 | 1050 | 1218 | 1410 | 1478 | 1392 |  | CCC(C)(C)C(=O)C(=O)N1CCCC[C@H]1C(=O)O[C@@H](CCc1ccc(OC)c(OC)c1)c1ccc(OCC(=O)O)cc1 [9-SR] |  |  |  |  |  |  |  |
| 297 | 876 | 931 | 579 | 1366 | 1231 | low or moderate binding affinity | CCC(C)(C)C(=O)C(=O)N1CCCC[C@H]1C(=O)O[C@@H](CCc1ccc(OC)c(OC)c1)c1ccc(OCC(=O)O)cc1 [9-SS] |  |  |  |  |  |  |  |

Continued, molecule first:

| Structure (SMILES) | Average Luminescence Concentration (CPS) (FKBP12; [7]) | Average Luminescence Concentration (CPS) (FKBP12; [8]) | Average Luminescence Concentration (CPS) (FKBP12; [9]) | Average Luminescence Concentration (CPS) (FKBP12; [10]) | Average Luminescence Concentration (CPS) (FKBP12; [11]) | Average Luminescence Concentration (CPS) (FKBP12; [12]) | binding affinity to chaperone FKBP12, in words (FKBP12) | Average Luminescence Concentration (CPS) (Biotin-labeled amyloid-β [1]; β-Amyloid Dilution 1 (μL/well)) | Average Luminescence Concentration (CPS) (Biotin-labeled amyloid-β [1]; β-Amyloid Dilution 5 (μL/well)) | Average Luminescence Concentration (CPS) (Biotin-labeled amyloid-β [1]; [3]) | Average Luminescence Concentration (CPS) (Biotin-labeled amyloid-β [1]; [4]) | Average Luminescence Concentration (CPS) (Biotin-labeled amyloid-β [1]; [5]) | Average Luminescence Concentration (CPS) (Biotin-labeled amyloid-β [1]; [6]) | EC50 (Biotin-labeled amyloid-β [2]) [µM] |
| --- | --- | --- | --- | --- | --- | --- | --- | --- | --- | --- | --- | --- | --- | --- |
| NCCNC(=O)c1ccccc1Nc1cccc(C(F)(F)F)c1 [3a, N-(2-amino-ethyl)-2-(3-trifluoromethyl-phenylamino)-benzamide] |  |  |  |  |  |  |  | 323 | 816 | 1453 | 2072 | 3072 | 2986 | 50.4 |
| NCCCNC(=O)c1ccccc1Nc1cccc(C(F)(F)F)c1 [3b] |  |  |  |  |  |  |  | 878 | 1325 | 1694 | 2184 | 4629 | 4788 | 31.9 |
| NCCCCNC(=O)c1ccccc1Nc1cccc(C(F)(F)F)c1 [3c] |  |  |  |  |  |  |  | 32 | 74 | 3128 | 161 | 2968 | 3025 | 36.2 |
| NCCCCCNC(=O)c1ccccc1Nc1cccc(C(F)(F)F)c1 [3d] |  |  |  |  |  |  |  | 105 | 220 | 678 | 1461 | 2662 | 2579 | 35.8 |
| Cc1ccc2c(c1)sc(-c1ccc(N(C)C)cc1)[n+]2C.[Cl-] [Thioflavin-T, reference compound] |  |  |  |  |  |  |  | 940 | 570 | 731 | 86 | 2311 | 5140 |  |
